# Test results published in US10206890B2, “Pharmaceutical combination” (priority 2008, dated 2019).
# Values joined by “and” are separate entries in the source; they are usually repeats but may differ in a detail not shown here. Identical values can stand only once. Counter-ions that a name gives are not always drawn. Like-named read-outs stand apart in the source and are kept apart here.
# Experiments:
# [1] = system: male Sprague-Dawley rats with ligated left L5/L6 spinal nerves (tactile allodynia); experiment: In vivo experiments according to Chung (spinal nerve ligation, tactile allodynia, electronic von Frey; isobolographic analysis); set-up: species or system rat; details: for contra-lateral paw withdrawal threshold, anti-nociceptive effect: 10 mg/kg i.v.; for ED50 (95% confidence interval), anti-allodynic efficacy, single substance / efficacy, increase in the withdrawal threshold of the ipsi-lateral hind paw: i.v.; for ED50 (95% confidence interval), anti-allodynic efficacy, single substance: calculated from peak effect vs. control values at 30 min after administration; for efficacy, increase in the withdrawal threshold of the ipsi-lateral hind paw: maximal efficacy over the doses tested (combination: highest dose 1 mg/kg+2.5 mg/kg), peak effect 30 min after administration
# Excerpt: The weight ratios of components (a) and (b) that will lead to a supra-additive effect/synergistic effect of the inventive compositions may be determined in the test of Kim & Chung as described in Kim S H, Chung J M. An experimental model for peripheral mononeuropathy produced by segmental spinal nerve ligation in the rat. Pain 1992; 50: 355-63. Said reference is hereby incorporated by reference and forms part of the disclosure.
# Ligatures were applied to the left L5/L6 spinal nerves of male Sprague-Dawley rats (140-160 g body weight, Janvier, Genest St. Isle, France). […] Three to four weeks after the operation the tactile allodynia threshold baseline (withdrawal threshold) was measured on the ipsilateral and contralateral hind paw by an electronic von Frey anaesthesiometer (Somedic, Schweden). After test and measurement of the baseline, (1R,2R)-3-(3-dimethylamino-1-ethyl-2-methyl-propyl)-phenol hydrochloride (hereinafter referred to as tapentadol hydrochloride or tapentadol-HCl), (S)-pregabalin as well as the inventive combination of tapentadol-HCl and (S)-pregabalin were each dissolved in 0.9% NaCl solution and injected by the intravenous (i.v.) route (application volume 5 ml/kg). Animals were randomly assigned to groups of 10 for each test dose and vehicle (0.9% NaCl solution) and tactile withdrawal thresholds were tested 0.5 h before administration and on several time points (0.5, 1 and 3 hours) after intravenous administration. Ipsi- and contralateral hindpaws were tested. The median of the withdrawal threshold for each animal at a given time is calculated from five individual stimulations with the electronic von Frey filament. Withdrawal thresholds of the injured paws are expressed as % MPE (Maximum possible effect) comparing predrug threshold of Chung-Animals (=0% MPE) and control threshold of sham-animals (100% MPE). A cut-off is set at 100% MPE. The effect of each compound and vehicle is calculated for each testing time point as interindividual % MPE value.
# Data (anti-allodynic efficacy (% MPE), ipsi-lateral, paw withdrawal threshold (g), ipsi- and conralateral) were analysed by means of a two-factor analysis of variance (ANOVA) with repeated measures. In case of a significant treatment effect, post hoc analysis with Bonferroni adjustment was performed. Results were considered statistically significant if P<0.05.
# [2] = system: rats with tightly ligated L5, L6 spinal nerves (tactile allodynia); experiment: b) In vivo experiments according to Chung (anti-allodynic testing, single dose combinations vs sum of single effects); set-up: species or system rat; details: 30 min, ± SEM
# Excerpt: The left L5 and L6 spinal nerves were exposed by removing a small piece of the paravertebral muscle and a part of the left spinous process of the L5 lumbar vertebra. The L5 and L6 spinal nerves were then carefully isolated and tightly ligated with silk (NC-silk black, USP 5/0, metric 1, Braun Melsungen AG, Melsungen, FRG). After checking hemostasis, the muscle and the adjacent fascia were closed with sutures and the skin was closed with sutures.
# After operation, animals were allowed to recover for one week. Animals develop tactile allodynia which is stable for at least five weeks. For the assessment of tactile allodynia the rats were placed on a metal mesh covered with a plastic dome and were allowed to habituate until the exploratory behaviour diminished. Threshold for tactile allodynia was measured with an electronic von Frey anesthesiometer (Somedic, Sweden). Animals randomly assigned to groups of 10 for each test dose and vehicle, were tested 0.5 h before administration and on several time points after administration. The median of the withdrawal threshold for each animal at a given time is calculated from five individual stimulations with the electronic von Frey filament. Withdrawal thresholds of the injured paws are expressed as % maximal possible effect (% MPE) comparing predrug threshold of Chung-animals (=0% MPE) and control threshold of sham-animals (=100% MPE). A cut-off is set at 100% MPE. The effect of each compound and vehicle is calculated for each testing time point (e.g. 0.5, 1, 3 h post administration) as interindividual % MPE value (±SEM). Anti-allodynic efficacy is defined as increase of ipsi-lateral withdrawal threshold without effect on contra-lateral withdrawal threshold. Ten animals have been used in each group.
# Effects of drug combinations are compared to the theoretical sum of the effects of each drug tested alone.
# [3] = system: inflamed rat hind paw (carrageenan); experiment: c) In vivo experiments according to Randall-Selitto (carrageenan inflammatory pain, mechanical nociceptive threshold; isobolographic analysis; details: peak effect 15 min p. appl., interval in brackets; for ED50: Rattus norvegicus, 0.25 h
# Experimental: The weight ratios of the components (a) and (b) that will lead to a supra-additive effect (synergistic effect) of the inventive pharmaceutical composition may be determined via the test of Randall and Selitto as described in Arch. Int. Pharmacodyn., 1957, 111, 409 to 419, which is a model for inflammatory pain. The respective part of the literature is hereby incorporated by reference and forms part of the present disclosure.
# Acute inflammation is induced by an intraplantar injection of 0.1 ml of a carrageenan solution (0.5% in distilled water) into one hind paw. The mechanical nociceptive threshold is measured 4 hours after carrageenan injection using an Algesiometer (Ugo Basile, Italy). The device generates a mechanical force with a linear increase over time. The force is applied to the dorsal surface of the inflamed rat hind paw via a cone-shaped stylus with a rounded tip (2 mm tip diameter). The nociceptive threshold is defined as the force (in grams) at which the rat vocalises (cut-off force 250 g). The mechanical nociceptive threshold is measured at different timepoints after the drug or vehicle administration. The antinociceptive and antihyperalgesic activity of the tested substance is expressed as percentages of the maximal possible effect (% MPE). The group size is n=10.
# The interactions studies presented herein were performed using equieffective doses of the two components, calculated from the ratio of the respective ED50 values of the components if administered alone.
# The route of administration was intravenous (i.v.) for Tapentadol hydrochloride (A) and intraperitoneal (i.p.) for the anticonvulsants (antiepileptics) Lamotrigine, Lacosamide, Levetiracetam and Retigabine dihydrochloride. […] According to their respective timepoint of peak effect, A was applied 15 min and the anticonvulsant component 15 min before timepoint of measurement of the interaction-experiments (i. e. both components were applied simultaneously). Thus, the time point of ED50 calculation of the combination corresponds to the timepoint of the peak effect of the respective compound.
# [4] = ip, read-out: ED50 of the anticonvulsant applied alone, i.p.
# [5] = ip, i.p., read-out: ED50 of the anticonvulsant applied alone
compound,measurement,setting,value
CC(C)C[C@H](CN)CC(=O)O [(S)-pregabalin],"contra-lateral paw withdrawal threshold, anti-nociceptive effect",[1],significant anti-nociceptive effects
same,"ED50 (95% confidence interval), anti-allodynic efficacy, single substance",[1],4.20 (3.37-5.43) mg/kg i.v.
same,"efficacy, increase in the withdrawal threshold of the ipsi-lateral hind paw",[1],67 % MPE
NCC1(CC(=O)O)CCCCC1 [Gabapentin],Effect % MPE (time after administration of Tapentadol hydrochloride),[2]; single substance 10 mg/kg iv (20 min before Tapentadol hydrochloride time point),3 ± 3% (30 min) % MPE
COC[C@@H](NC(C)=O)C(=O)NCc1ccccc1 [Lacosamide],Effect % MPE (time after administration of Tapentadol hydrochloride),[2]; single substance 3 mg/kg iv,24 ± 4% (30 min) % MPE
same,ED50,[3]; [4],35.9 mg/kg
Nc1nnc(-c2cccc(Cl)c2Cl)c(N)n1 [Lamotrigine],ED50,[3]; [5],35.3 mg/kg
same,ED50 of the anticonvulsant applied alone,[3]; i.p.,35.25 mg/kg
CC[C@@H](C(N)=O)N1CCCC1=O [Levetiracetam],Effect % MPE (time after administration of Tapentadol hydrochloride),[2]; single substance 20 mg/kg iv,16 ± 4% (30 min) % MPE
same,ED50,[3]; [5],986 mg/kg
CCOC(=O)Nc1ccc(NCc2ccc(F)cc2)cc1N [Retigabine dihydrochloride],ED50,[3]; [4],5.09 mg/kg
"CC[C@@H](c1cccc(O)c1)[C@@H](C)CN(C)C [Tapentadol hydrochloride, (1R,2R)-3-(3-dimethylamino-1-ethyl-2-methyl-propyl)-phenol hydrochloride]","contra-lateral paw withdrawal threshold, anti-nociceptive effect",[1],significant anti-nociceptive effects
same,"ED50 (95% confidence interval), anti-allodynic efficacy, single substance",[1],1.65 (1.20-2.35) mg/kg i.v.
same,"efficacy, increase in the withdrawal threshold of the ipsi-lateral hind paw",[1],94 % MPE
same,Effect % MPE (time after administration of Tapentadol hydrochloride),"[2]; single substance 1 mg/kg iv, hydrochloride",18 ± 4% (30 min) % MPE and 13 ± 5% (30 min) % MPE
same,ED50,"[3]; iv, read-out: ED50 of A (Tapentadol hydrochloride) applied alone, i.v.",1.75 mg/kg
same,ED50 of A (Tapentadol hydrochloride) applied alone,"[3]; i.v., listed as A, hydrochloride",1.747 mg/kg and 1.749 mg/kg
CC1(C)O[C@@H]2[C@@H](CO[C@@]3(COS(N)(=O)=O)OC(C)(C)O[C@@H]23)O1 [Topiramate],Effect % MPE (time after administration of Tapentadol hydrochloride),[2]; single substance 1 mg/kg iv,22 ± 3% (30 min) % MPE
